The record followed here is patent publication US9617271B2, “Triazolo compounds” (Hoffmann-La Roche Inc., priority 2012, dated 2017).

Molecules are shown by their SMILES.

This test deals with human PDE10A (Homo sapiens (Human), UniProt Q9Y233). The experiment in a line: human PDE10A full length assay ([3H]-cGMP SPA). It counts as biochemical. The note with it: human PDE10A full length enzyme, 50 nM cGMP + 50 nM [3H]-cGMP, 20 minutes at room temperature; read-out: PDE10A inhibition IC50. Here is the method: The human PDE10A full length assay was performed in 96-well micro titer plates. The reaction mixture of 50 μl contained 20 mM HEPES pH=7.5/10 mM MgCl2/0.05 mg/ml BSA (Sigma cat. #A-7906), 50 nM cGMP (Sigma, cat. #G6129) and 50 nM [3H]-cGMP (GE Healthcare, cat. #TRK392 S.A. 13.2 Ci/mmol), 3.75 ng/well PDE10A enzyme (Enzo Life Science, Lausen, Switzerland cat #SE-534) with or without a specific test compound. A range of concentrations of the potential inhibitor was used to generate data for calculating the concentration of inhibitor resulting in 50% of the effect (e.g. IC50, the concentration of the competitor inhibiting PDE10A activity by 50%). Non-specific activity was tested without the enzyme. The reaction was initiated by the addition of the substrate solution (cGMP and [3H]-cGMP) and allowed to progress for 20 minutes at room temperature. The reaction was terminated by adding 25 μl of YSi-SPA scintillation beads (GE Healthcare, cat. #RPNQ0150) in 18 mM zinc sulphate solution (stop reagent). After 1 h under shaking, the plate was centrifuged one minute at 170 g to allow beads to settle. Afterwards, radioactive counts were measured on a Perkin Elmer TopCount Scintillation plate reader.
human PDE10A, sequence (Q9Y233 other isoform, or with tags, fused parts or gaps): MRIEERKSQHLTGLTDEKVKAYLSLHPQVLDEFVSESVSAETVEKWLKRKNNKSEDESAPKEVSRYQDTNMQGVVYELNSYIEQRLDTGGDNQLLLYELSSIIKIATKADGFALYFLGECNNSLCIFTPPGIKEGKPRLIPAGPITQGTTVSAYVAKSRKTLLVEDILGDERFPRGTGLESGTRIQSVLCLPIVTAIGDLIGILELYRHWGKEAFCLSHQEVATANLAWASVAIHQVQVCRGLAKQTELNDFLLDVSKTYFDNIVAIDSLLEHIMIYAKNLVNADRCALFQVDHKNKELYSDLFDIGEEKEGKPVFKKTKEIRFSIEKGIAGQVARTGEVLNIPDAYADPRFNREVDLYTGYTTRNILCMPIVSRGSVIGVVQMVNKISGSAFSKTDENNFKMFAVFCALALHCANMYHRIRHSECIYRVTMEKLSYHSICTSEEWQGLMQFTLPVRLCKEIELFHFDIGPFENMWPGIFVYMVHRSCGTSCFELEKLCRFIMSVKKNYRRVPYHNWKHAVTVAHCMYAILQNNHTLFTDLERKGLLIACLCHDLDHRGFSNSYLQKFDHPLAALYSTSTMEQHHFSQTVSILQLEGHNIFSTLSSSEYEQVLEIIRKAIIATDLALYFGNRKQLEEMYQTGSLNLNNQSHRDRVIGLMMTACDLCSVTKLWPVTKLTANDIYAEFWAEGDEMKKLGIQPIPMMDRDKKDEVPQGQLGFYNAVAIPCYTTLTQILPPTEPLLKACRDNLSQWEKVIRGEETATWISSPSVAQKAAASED
As a reminder, the IC50 is the point on the concentration scale where inhibition reaches its midpoint. Take `Cc1c(C(F)(F)F)nc2c(OCC(F)(F)F)cc(CCc3nc(N4CCCC4)nn3C)nn12` [Example 63, 3-Methyl-6-(2-(1-methyl-3-(pyrrolidin-1-yl)-1H-1,2,4-triazol-5-yl)ethyl)-8-(2,2,2-trifluoroethoxy)-2-(trifluoromethyl)imidazo[1,2-b]pyridazine]: the IC50 was 9.4 nM.

Consider `Cc1nc2ccc(CCc3nc(N4CCCC4)nn3C)nn2c1CO` [Example 21, (2-Methyl-6-(2-(1-methyl-3-(pyrrolidin-1-yl)-1H-1,2,4-triazol-5-yl)ethyl)imidazo[1,2-b]-pyridazin-3-yl)methanol], for which the IC50 is 194 nM. With `Cc1nc2c(Cl)nc(CCc3nc(N4CCCC4)nn3C)nn2c1C` [Example 15, 4-Chloro-6,7-dimethyl-2-(2-(1-methyl-3-(pyrrolidin-1-yl)-1H-1,2,4-triazol-5-yl)ethyl)imidazo[1,2-f][1,2,4]triazine] the figure was 4 nM; with `Cc1c(C(F)(F)F)nn2ccc(C#Cc3nc(N4CCCC4)nn3C)nc12` [Example 71, 3-Methyl-5-[2-(2-methyl-5-pyrrolidin-1-yl-1,2,4-triazol-3-yl)ethynyl]-2-(trifluoromethyl)pyrazolo[1,5-a]pyrimidine], 8.7 nM. With `Cc1c(C(F)F)nc2ccc(CCc3nc(N4CCCC4)nn3C)nn12` [Example 8, 2-(Difluoromethyl)-3-methyl-6-(2-(1-methyl-3-(pyrrolidin-1-yl)-1H-1,2,4-triazol-5-yl)ethyl)imidazo[1,2-b]pyridazine] the figure was 8 nM; with `Cc1nc2ccc(CCc3nc(N4CCCC4)nn3C)nn2c1C` [Example 2, 2,3-Dimethyl-6-(2-(1-methyl-3-(pyrrolidin-1-yl)-1H-1,2,4-triazol-5-yl)ethyl)-imidazo[1,2-b]pyridazine], 11 nM. With `Cc1nc2c(S(C)(=O)=O)cc(C#Cc3nc(N4CCCC4)nn3C)nn2c1C` [Example 29, 2,3-Dimethyl-6-((1-methyl-3-(pyrrolidin-1-yl)-1H-1,2,4-triazol-5-yl)ethynyl)-8-(methylsulfonyl)imidazo[1,2-b]pyridazine] the figure was 5 nM; with `Cc1c(C(F)(F)F)nn2ccc(CCc3nc(N4CCCC4)nn3C)nc12` [Example 72, 3-methyl-5-(2-(1-methyl-3-(pyrrolidin-1-yl)-1H-1,2,4-triazol-5-yl)ethyl)-2-(trifluoromethyl)pyrazolo[1,5-a]pyrimidine], 32.9 nM; with `Cc1cc2nc(C)c(C)n2nc1CCc1nc(N2CCCC2)nn1C` [Example 18, 2,3,7-Trimethyl-6-(2-(1-methyl-3-(pyrrolidin-1-yl)-1H-1,2,4-triazol-5-yl)ethyl)imidazo[1,2-b]pyridazine], 195 nM. As for `Cc1nc2c(N3CCCC3)cc(CCc3nc(N4CCCC4)nn3C)nn2c1C` [Example 19, 2,3-Dimethyl-6-(2-(1-methyl-3-(pyrrolidin-1-yl)-1H-1,2,4-triazol-5-yl)ethyl)-8-(pyrro-lidin-1-yl)imidazo[1,2-b]pyridazine], the IC50 came to 5 nM.

With `Cc1c(Cl)nc2ccc(CCc3nc(N4CCCC4)nn3C)nn12` [Example 64, 2-Chloro-3-methyl-6-(2-(1-methyl-3-(pyrrolidin-1-yl)-1H-1,2,4-triazol-5-yl)ethyl)imidazo[1,2-b]pyridazine], the IC50 is 5.5 nM.

With `Cc1nc2c(OC(C)C)cc(C#Cc3nc(N4CCCC4)nn3C)nn2c1C` [Example 25, 8-Isopropoxy-2,3-dimethyl-6-((1-methyl-3-(pyrrolidin-1-yl)-1H-1,2,4-triazol-5-yl)ethynyl)imidazo[1,2-b]pyridazine], the IC50 is 1 nM. Under `CNC(=O)c1cc(CCc2nc(N3CCCC3)nn2C)nn2c(C)c(C(F)(F)F)nc12` [Example 70, N,3-dimethyl-6-(2-(1-methyl-3-(pyrrolidin-1-yl)-1H-1,2,4-triazol-5-yl)ethyl)-2-(trifluoromethyl)imidazo[1,2-b]pyridazine-8-carboxamide] stands 13.7 nM.

Consider `Cc1nn2ccc(C#Cc3nc(N4CCCC4)nn3C)nc2c1C` [Example 52, 2,3-Dimethyl-5-((1-methyl-3-(pyrrolidin-1-yl)-1H-1,2,4-triazol-5-yl)ethynyl)pyrazolo[1,5-a]pyrimidine], for which the IC50 came to 2.6 nM.

For the molecule `Cc1nn2ccc(CCc3nc(N4CCCC4)nn3C)nc2c1C` [Example 53, 2,3-dimethyl-5-(2-(1-methyl-3-(pyrrolidin-1-yl)-1H-1,2,4-triazol-5-yl)ethyl)pyrazolo[1,5-a]pyrimidine], the half-inhibitory concentration (IC50) was determined as 2.1 nM. Under `Cc1nc2c(Cl)nc(CCc3nc(N4CCCC4)n(C)n3)nn2c1C` [Example 20, 4-Chloro-6,7-dimethyl-2-(2-(1-methyl-5-(pyrrolidin-1-yl)-1H-1,2,4-triazol-3-yl)ethyl)-imidazo[1,2-f][1,2,4]triazine] stands 11 nM; under `COc1cc(/C=C/c2nc(N3CCCC3)nn2C)nn2c(C)c(C(F)(F)F)nc12` [Example 9, (E)-8-methoxy-3-methyl-6-(2-(1-methyl-3-(pyrrolidin-1-yl)-1H-1,2,4-triazol-5-yl)vinyl)-2-(trifluoromethyl)imidazo[1,2-b]pyridazine], 1 nM; under `Cc1nc2cc(C(F)(F)F)c(C#Cc3nc(N4CCCC4)nn3C)nn2c1C` [Example 42, 2,3-Dimethyl-6-((1-methyl-3-(pyrrolidin-1-yl)-1H-1,2,4-triazol-5-yl)ethynyl)-7-(trifluoro-methyl)imidazo[1,2-b]pyridazine], 11 nM. Under `Cc1cn2nc(CCc3nc(N4CCCC4)nn3C)ccc2n1` [Example 68, 2-Methyl-6-(2-(1-methyl-3-(pyrrolidin-1-yl)-1H-1,2,4-triazol-5-yl)ethyl)imidazo[1,2-b]pyridazine] stands 146 nM; under `Cc1nc2c(C)cc(CCc3nc(N4CCCC4)nn3C)nn2c1C` [Example 16, 2,3,8-trimethyl-6-(2-(1-methyl-3-(pyrrolidin-1-yl)-1H-1,2,4-triazol-5-yl)ethyl)-imidazo[1,2-b]pyridazine], 2 nM. Under `Cc1c(C(F)(F)F)nc2ccc(CCc3nc(N4CCCC4)nn3C)nn12` [Example 1, 3-Methyl-6-(2-(1-methyl-3-(pyrrolidin-1-yl)-1H-1,2,4-triazol-5-yl)ethyl)-2-(trifluoro-methyl)imidazo[1,2-b]pyridazine] stands 12 nM. As to `Cc1nc2c(OC(C)C)cc(CCc3nc(N4CCCC4)nn3C)nn2c1C` [Example 27, 8-Isopropoxy-2,3-dimethyl-6-(2-(1-methyl-3-(pyrrolidin-1-yl)-1H-1,2,4-triazol-5-yl)ethyl)imidazo[1,2-b]pyridazine], the concentration for half-maximal inhibition (IC50) is 3 nM.

Turning to `Cn1nc(N2CCCC2)nc1CCc1ccc2nc3c(n2n1)CCC3` [Example 14, 5-[2-(2-Methyl-5-pyrrolidin-1-yl-2H-[1,2,4]triazol-3-yl)-ethyl]-2,3-dihydro-1H-3b,4,8-triaza-cyclopenta[a]indene], the IC50 is 41 nM. With `COc1nc(CCc2nc(N3CCCC3)nn2C)nn2c(C)c(C)nc12` [Example 13, 4-Methoxy-6,7-dimethyl-2-(2-(1-methyl-3-(pyrrolidin-1-yl)-1H-1,2,4-triazol-5-yl)ethyl)imidazo[1,2-f][1,2,4]triazine], the half-maximal inhibitory concentration (IC50) turned out to be 2 nM.

Regarding `Cc1nc2c(S(C)(=O)=O)cc(CCc3nc(N4CCCC4)nn3C)nn2c1C` [Example 33, 2,3-Dimethyl-6-(2-(1-methyl-3-(pyrrolidin-1-yl)-1H-1,2,4-triazol-5-yl)ethyl)-8-(methyl-sulfonyl)imidazo[1,2-b]pyridazine], the IC50 was determined as 41 nM. With `Cc1cc(CCc2nc(N3CCCC3)nn2C)nn2c(C)c(C(F)(F)F)nc12` [Example 55, 3,8-Dimethyl-6-(2-(1-methyl-3-(pyrrolidin-1-yl)-1H-1,2,4-triazol-5-yl)ethyl)-2-(trifluoro-methyl)imidazo[1,2-b]pyridazine] the figure was 16.8 nM; with `COc1cc2nc(C)c(C)n2nc1C#Cc1nc(N2CCCC2)nn1C` [Example 60, 7-Methoxy-2,3-dimethyl-6-((1-methyl-3-(pyrrolidin-1-yl)-1H-1,2,4-triazol-5-yl)ethynyl)imidazo[1,2-b]pyridazine], 2.7 nM. In the case of `Cc1nc2c(C(C)C)cc(C#Cc3nc(N4CCCC4)nn3C)nn2c1C` [Example 44, 8-Isopropyl-2,3-dimethyl-6-((1-methyl-3-(pyrrolidin-1-yl)-1H-1,2,4-triazol-5-yl)ethynyl)imidazo[1,2-b]pyridazine], the IC50 amounted to 1 nM.

For `COc1cc(CCc2nc(N3CCCC3)nn2C)nn2c(C)c(C(F)(F)F)nc12` [Example 10, 8-Methoxy-3-methyl-6-(2-(1-methyl-3-(pyrrolidin-1-yl)-1H-1,2,4-triazol-5-yl)ethyl)-2-(trifluoromethyl)imidazo[1,2-b]pyridazine], the IC50 was determined as 2 nM. With `Cc1nc2c(O)nc(CCc3nc(N4CCCC4)nn3C)nn2c1C` [Example 11, 6,7-Dimethyl-2-(2-(1-methyl-3-(pyrrolidin-1-yl)-1H-1,2,4-triazol-5-yl)ethyl)imidazo[1,2-f][1,2,4]triazin-4-ol] the figure was 225 nM; with `Cc1nc2cc(C(C)C)c(C#Cc3nc(N4CCCC4)nn3C)nn2c1C` [Example 50, 7-Isopropyl-2,3-dimethyl-6-((1-methyl-3-(pyrrolidin-1-yl)-1H-1,2,4-triazol-5-yl)ethynyl)imidazo[1,2-b]pyridazine], 2.6 nM.
